Laboratory results taken from patent publication US7553853B2, “Solid-state montelukast” (Synthon BV, priority 2003, dated 2009).

How the values were obtained:
[1] = Hygroscopicity as stated in the description; type: physicochemical; settings: solid state
[2] = Hygroscopicity of montelukast acid (water content by Karl Fisher apparatus after exposure); type: physicochemical
Description: Montelukast acid (50 mg) from Example 2 was exposed to air overnight. The water content was then determined to be 0.07 wt % using a Karl Fisher apparatus.
Montelukast acid (50 mg) from Example 2 was stored for 2 days at 40° C., 75% relative humidity. The water content was then determined to be 0.27 wt % using a Karl Fisher apparatus.

- hygroscopicity in comparison to sodium montelukast [1]: reduced hygroscopicity
- water content ([2]; montelukast acid (50 mg) from Example 2, exposed to air overnight): 0.07 wt %
- water content ([2]; montelukast acid (50 mg) from Example 2, stored for 2 days at 40° C., 75% relative humidity): 0.27 wt %
SMILES: CC(C)(O)c1ccccc1CC[C@@H](SCC1(CC(=O)O)CC1)c1cccc(/C=C/c2ccc3ccc(Cl)cc3n2)c1 [Montelukast acid, [R-(E)]-1-[[[1-[3-[2-(7-chloro-2-quinolinyl)ethenyl]phenyl]-3-[2-(1-hydroxy-1-methylethyl)phenyl]propyl]thio]methyl]cyclopropane acetic acid]
